Experimental data as given in patent US20150297482A1, “MALODOR COUNTERACTING COMPOSITIONS AND METHOD FOR THEIR USE TO COUNTERACT SWEAT MALODOR” (FIRMENICH SA, priority 2009, published 2015).
Where a name gives a salt, the structure may show the parent alone. Read-outs that look alike come from different tables or passages of the source.

System: Staphylococcus haemolyticus CNCM I-4170
Experiment: Protocol A: in-vitro malodor inhibition (free thiol groups from Cys-Gly precursor, DTNB absorbance at 412 nm)
Type: cell-based
Conditions: for inhibition at 0.0012 % / inhibition at 0.0025 % / inhibition at 0.006 % / inhibition at 0.0125 % / inhibition at 0.025 % / inhibition at 0.05 % / inhibition at 0.005 % / inhibition at 0.1 % / inhibition at 0.0006 %: Staphylococcus haemolyticus, CNCMI4170, read-out: Ingredient Malodor Inhibition Value (%); for inhibition at 0.0006 %: 0.0006 w/v % in medium
Description: Further details of such a screening and % inhibition measurement and definition are described further on in this application. The precursor used, which may also be in the form of a human sweat sample, typically generates malodorant sulfur compounds when acted upon by the Staphylococcus haemolyticus cells, or by a β-lyase present in such cells. The malodor inhibition coefficient, as defined herein, reflects the % of reduction in free SH groups generated in the above-mentioned medium by the enzymatic activity of the bacterial cells when in presence of the MOC ingredient or MOC composition in question, as compared to the same measurement in their absence. […] Alternatively, the bacterial cells can be replaced by a β-lyase present in said cells. […] Detection of enzymatic activity inhibition is measured via the sulfur groups, namely thiol groups, freed from the precursor bacterial transformation, by comparison with the reference experiment in the absence of the respective MOC ingredient, said sulfur groups being detected by interaction with DTNB, a known chemical detector system for thiols. The reaction can be monitored by absorbance reading at 412 nm. The procedure can be performed indifferently with either a purified or semi-purified enzyme or intact bacterial cells, as in the case described here. Malodor inhibition coefficient is measured as a function of the percentage of free thiol groups in the medium, over time, by an absorbance method, and reflects the reduction in malodor obtained in the presence of the MOC ingredients and compositions. […] At the end of the growth phase, the bacterial cells were harvested by centrifugation at 5000 rpm for 15 min. The cell pellet was then washed with 0.1 volumes of sterile potassium phosphate buffer 0.1 M, pH 7.5. […] The precursor was used at 0.17 mM final concentration. • Detection reagent DTNB • DTNB (5,5′-Dithio-bis-(2-nitrobenzoic acid; […]

[1] = Table 2, 0.0012 w/v % in medium
[2] = Table 2, 0.0025 w/v % in medium
[3] = Table 2, 0.0125 w/v % in medium

SMILES | inhibition at 0.0012 % (0.0012 w/v % in medium) [%] | inhibition at 0.0025 % (0.0025 w/v % in medium) [%] | inhibition at 0.006 % (0.006 w/v % in medium) [%] | inhibition at 0.0012 % [1] [%] | inhibition at 0.0025 % [2] [%] | inhibition at 0.005 % (Table 2, 0.005 w/v % in medium) [%] | inhibition at 0.0125 % [3] [%] | other results
C[C@H]1[C@@H]2CC(C[C@@]13C=CC(=O)CC3)C2(C)C (single isomer, unassigned; (+)) | – | – | – | – | – | – | – | Ingredient Malodor Inhibition Value (%) (0.0012 w/v % in medium): 0.00%; Ingredient Malodor Inhibition Value (%) (0.0025 w/v % in medium): 14.02%; Ingredient Malodor Inhibition Value (%) (0.006 w/v % in medium): 26.00%; Ingredient Malodor Inhibition Value (%) (0.0125 w/v % in medium): 72.64%; Ingredient Malodor Inhibition Value (%) (0.025 w/v % in medium): 75.94%; Ingredient Malodor Inhibition Value (%) (0.05 w/v % in medium): 75.68%
CC1=CC[C@H](C(C)CC=O)CC1 (single isomer, unassigned; (+)) [(+)-(4R)-1-P-Menthene-9-carbaldehyde] | – | – | – | – | – | – | – | Ingredient Malodor Inhibition Value (%) [1]: 0.00%; Ingredient Malodor Inhibition Value (%) [2]: 3.44%; Ingredient Malodor Inhibition Value (%) (Table 2, 0.005 w/v % in medium): 34.61%; Ingredient Malodor Inhibition Value (%) [3]: 81.68%; Ingredient Malodor Inhibition Value (%) (Table 2, 0.025 w/v % in medium): 97.82%
CC1=CC[C@H](/C=C/C(C)(C)C(C)O)C1(C)C (single isomer, unassigned; (-)) [(-)-(1′R,E)-3,3-Dimethyl-5-(2′,2′,3′-trimethyl-3′-cyclopenten-1′-yl)-4-penten-2-ol] | – | – | – | – | – | – | – | Ingredient Malodor Inhibition Value (%) (0.0012 w/v % in medium): 0.00%; Ingredient Malodor Inhibition Value (%) (0.0025 w/v % in medium): 27.39%; Ingredient Malodor Inhibition Value (%) (0.006 w/v % in medium): 75.11%; Ingredient Malodor Inhibition Value (%) (0.0125 w/v % in medium): 76.95%; Ingredient Malodor Inhibition Value (%) (0.025 w/v % in medium): 76.65%
O=C1CCCCCCCCCCC(=O)OCCO1 [1,4-Dioxacyclohexadecane-5,16-dione] | 0 | 0 | 0 | – | – | – | – | inhibition at 0.0125 % (0.0125 w/v % in medium): 28.2%; inhibition at 0.025 % (0.025 w/v % in medium): 37.3%; inhibition at 0.05 % (0.05 w/v % in medium): 36.5%
CCCCCCCCCCC=CC=O [2-Tridecenal (ethyl citrate solution), 2-Tridecenal] | – | – | – | 29 | 40.2 | 50 | 81 | –
CC(CCO)CC(C)(C)C (centres unmarked) [3,5,5-Trimethyl-1-hexanol] | 0 | 0 | 0 | – | – | – | – | inhibition at 0.0125 % (0.0125 w/v % in medium): 0%; inhibition at 0.025 % (0.025 w/v % in medium): 35%; inhibition at 0.05 % (0.05 w/v % in medium): 58.3%; inhibition at 0.1 % (0.1 w/v % in medium): 62.9%
CC(C)CCCC(C)CC=O (centres unmarked) [3,7-Dimethyloctanal] | – | – | – | 0 | 0 | 18.1 | 66.7 | –
CC(C)c1cccc(C(C)CC=O)c1 (centres unmarked) [3-(3-Isopropyl-1-phenyl)butanal] | – | – | – | – | – | – | – | Ingredient Malodor Inhibition Value (%) [1]: 16.63%; Ingredient Malodor Inhibition Value (%) [2]: 30.10%; Ingredient Malodor Inhibition Value (%) (Table 2, 0.005 w/v % in medium): 73.81%; Ingredient Malodor Inhibition Value (%) [3]: 95.51%; Ingredient Malodor Inhibition Value (%) (Table 2, 0.025 w/v % in medium): 99.45%; Ingredient Malodor Inhibition Value (%) (Table 2, 0.05 w/v % in medium): 97.34%
CC1(C)C2CC=C(CCC=O)C1C2 (centres unmarked) [3-(6,6-Dimethyl-bicyclo[3.1.1]hept-2-en-2-yl)propanal] | – | – | – | 0 | 4.58 | 82.9 | 96.7 | inhibition at 0.025 % (Table 2, 0.025 w/v % in medium): 100%; inhibition at 0.05 % (Table 2, 0.05 w/v % in medium): 96.3%
c1nc2c(o1)CCCCCCCCCC2 [4,5,6,7,8,9,10,11,12,13-Decahydrocyclododeca-1,3-oxazole] | – | – | – | 0 | 0 | 52.2 | – | –
CC(C)(C)C1CCC(O)CC1 (centres unmarked) [4-tert-Butyl-1-cyclohexanol] | 0 | 0 | 0 | – | – | – | – | inhibition at 0.0125 % (0.0125 w/v % in medium): 0%; inhibition at 0.025 % (0.025 w/v % in medium): 59.8%; inhibition at 0.05 % (0.05 w/v % in medium): 89.1%
CC1=CC2CC(C=O)C1CC2C(C)C (centres unmarked) [8-Isopropyl-6-methyl-bicyclo[2.2.2]oct-5-ene-2-carbaldehyde] | – | – | – | 18.9 | 28.3 | 76.9 | 84.5 | inhibition at 0.025 % (Table 2, 0.025 w/v % in medium): 82.9%; inhibition at 0.05 % (Table 2, 0.05 w/v % in medium): 88.2%
CC=CCCCCCCCC=O [9-Undecenal] | – | – | – | 0 | 0 | 62.4 | 89 | inhibition at 0.025 % (Table 2, 0.025 w/v % in medium): 81.8%; inhibition at 0.05 % (Table 2, 0.05 w/v % in medium): 77.9%
C=CCCCCCCCCC=O [10-Undecenal] | – | – | – | 3 | – | 49.2 | – | –
CC/C(=C\C[C@H]1CC=C(C)C1(C)C)CO [(-)-(2E)-2-Ethyl-4-[(1R)-2,2,3-trimethyl-3-cyclopenten-1-yl]-2-buten-1-ol] | 0 | 21.2 | 70.8 | – | – | – | – | inhibition at 0.0125 % (0.0125 w/v % in medium): 80%; inhibition at 0.025 % (0.025 w/v % in medium): 80.3%
CCCCCCC/C=C/C=O [(E)-2-Decenal] | – | – | – | 22 | 28.2 | 66.6 | 90.1 | inhibition at 0.025 % (Table 2, 0.025 w/v % in medium): 100%
CCCCCCCCC/C=C/C=O [(E)-2-Dodecenal] | – | – | – | 29.7 | 55.4 | 86.9 | 94 | inhibition at 0.0006 % (Table 2): 10.4%
CCCCC/C=C/CCC=O [(E)-4-Decenal] | – | – | – | 22 | 28.2 | 66.6 | 90.1 | inhibition at 0.025 % (Table 2, 0.025 w/v % in medium): 100%
CCCCCCC/C=C\CCC=O [(Z)-4-Dodecenal] | – | – | – | 0 | 6.96 | 76.5 | – | inhibition at 0.0006 % (Table 2): 0%
CC1(C)CCCC2(C)C1CCC1(C)OCCC12 (centres unmarked) [Ambrox ®, 8,12-epoxy-13,14,15,16-tetranorlabdane] | – | – | – | – | – | – | – | Ingredient Malodor Inhibition Value (%) (0.0012 w/v % in medium): 0.00%; Ingredient Malodor Inhibition Value (%) (0.0025 w/v % in medium): 0.00%; Ingredient Malodor Inhibition Value (%) (0.05 w/v % in medium): 18.23%; Ingredient Malodor Inhibition Value (%) (0.1 w/v % in medium): 38.00%
CC(C)(C)c1ccc(CCC=O)cc1 [Bourgeonal, 3-(4-tert-butylphenyl)propanal] | 4.15 | 7.06 | 42.6 | – | – | – | – | –
CC1C(C)(C)C2=C(C(=O)CCC2)C1(C)C (centres unmarked) [Cashmeran, 1,2,3,5,6,7-hexahydro-1,1,2,3,3-pentamethyl-4-indenone] | 0 | 0 | 19.2 | – | – | – | – | inhibition at 0.0125 % (0.0125 w/v % in medium): 54%; inhibition at 0.025 % (0.025 w/v % in medium): 71.5%; inhibition at 0.05 % (0.05 w/v % in medium): 70.1%; inhibition at 0.1 % (0.1 w/v % in medium): 73.2%
CC(C)(O)CCC1CCCCC1 [Coranol ®, 4-cyclohexyl-2-methyl-2-butanol] | 0 | 0 | 10.8 | – | – | – | – | inhibition at 0.0125 % (0.0125 w/v % in medium): 49.8%; inhibition at 0.025 % (0.025 w/v % in medium): 77.7%; inhibition at 0.1 % (0.1 w/v % in medium): 77.8%
CC(C=O)Cc1ccc(C(C)(C)C)cc1 (centres unmarked) [Lilial ®, 3-(4-tert-butylphenyl)-2-methylpropanal] | 0.9 | 9.47 | 37.5 | – | – | – | – | inhibition at 0.0125 % (0.0125 w/v % in medium): 81%; inhibition at 0.025 % (0.025 w/v % in medium): 90%
C=CC(C)(O)CCC=C(C)CCC=C(C)C (centres unmarked) [Nerolidol] | 0 | 6.52 | 53.5 | – | – | – | – | inhibition at 0.0125 % (0.0125 w/v % in medium): 56.9%; inhibition at 0.025 % (0.025 w/v % in medium): 68.5%; inhibition at 0.05 % (0.05 w/v % in medium): 66.8%
CCCCCCCCC=O [Nonanal] | – | – | – | 5.26 | 5.08 | 40.2 | 80.4 | inhibition at 0.025 % (Table 2, 0.025 w/v % in medium): 94.8%; inhibition at 0.05 % (Table 2, 0.05 w/v % in medium): 97.8%
CCC(C)CCCC(C)(C)O (centres unmarked) [Tetrahydromyrcenol] | – | – | – | – | – | – | – | Ingredient Malodor Inhibition Value (%) (0.0012 w/v % in medium): 0.00%; Ingredient Malodor Inhibition Value (%) (0.0025 w/v % in medium): 0.00%; Ingredient Malodor Inhibition Value (%) (0.006 w/v % in medium): 0.00%; Ingredient Malodor Inhibition Value (%) (0.0125 w/v % in medium): 0.00%; Ingredient Malodor Inhibition Value (%) (0.025 w/v % in medium): 41.38%; Ingredient Malodor Inhibition Value (%) (0.05 w/v % in medium): 72.56%; Ingredient Malodor Inhibition Value (%) (0.1 w/v % in medium): 66.63%
